Tests used:
Format in all cases: in vivo
[1] = system: Italian ryegrass (Lolium multiflorum); assay: Test C preemergence; conditions: Lolium multiflorum, pre-emergence, 336 h, scale 0 to 100, read-out: Plant response rating, Ryegrass, Italian
Procedure, shortened: (§1)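 After preemergence treatment of seeds in loam-sand soil or foliar treatment at the 1- to 4-leaf stage of plants in peat/vermiculite medium, pots were kept 13-15 days in the greenhouse. Each was then scored visually, 0 meaning no effect and 100 complete control.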

[2] = system: barnyardgrass (Echinochloa crus-galli); assay: Test C preemergence; conditions: Echinochloa crus-galli, pre-emergence, read-out: Plant response rating, Barnyardgrass
Procedure, shortened: as §1

[3] = system: blackgrass (Alopecurus myosuroides); assay: Test C preemergence; conditions: Alopecurus myosuroides, pre-emergence, 336 h, scale 0 to 100, read-out: Plant response rating, Blackgrass
Procedure, shortened: as §1

corn (Zea mays) = assay: Test C preemergence; conditions: Zea mays, pre-emergence, 336 h, scale 0 to 100
Procedure, shortened: as §1

[4] = system: giant foxtail (Setaria faberii); assay: Test C preemergence; conditions: Setaria faberi, pre-emergence, 336 h, scale 0 to 100, read-out: Plant response rating, Foxtail, Giant
Procedure, shortened: as §1

[5] = system: johnsongrass (Sorghum halepense); assay: Test C preemergence; conditions: Sorghum halepense, pre-emergence, 336 h, scale 0 to 100, read-out: Plant response rating, Johnsongrass
Procedure, shortened: as §1

[6] = system: large (Lg) crabgrass (Digitaria sanguinalis); assay: Test C preemergence; conditions: Digitaria sanguinalis, pre-emergence, 336 h, scale 0 to 100, read-out: Plant response rating, Crabgrass, Large
Procedure, shortened: as §1

[7] = system: morningglory (Ipomoea coccinea); assay: Test C preemergence; conditions: Ipomoea, pre-emergence, 336 h, scale 0 to 100, read-out: Plant response rating, Morningglory
Procedure, shortened: as §1

[8] = system: oilseed rape (Brassica napus); assay: Test C preemergence; conditions: Brassica napus, pre-emergence, scale 0 to 100, read-out: Plant response rating, Oilseed Rape
Procedure, shortened: as §1

[9] = system: pigweed (Amaranthus retroflexus); assay: Test C preemergence; conditions: Amaranthus retroflexus, pre-emergence, 336 h, scale 0 to 100, read-out: Plant response rating, Pigweed
Procedure, shortened: as §1

[10] = system: ragweed (common ragweed, Ambrosia elatior); assay: Test C preemergence; conditions: Ambrosia artemisiifolia, pre-emergence, 336 h, scale 0 to 100, read-out: Plant response rating, Ragweed
Procedure, shortened: as §1

soybean (Glycine max) = assay: Test C preemergence; conditions: Glycine max, pre-emergence, scale 0 to 100, read-out: Plant response rating, Soybean
Procedure, shortened: as §1

[11] = system: velvetleaf (Abutilon theophrasti); assay: Test C preemergence; conditions: Abutilon theophrasti, pre-emergence, scale 0 to 100, read-out: Plant response rating, Velvetleaf
Procedure, shortened: as §1

[12] = system: waterhemp (common waterhemp, Amaranthus rudis); assay: Test C preemergence; conditions: Amaranthus tuberculatus, pre-emergence, scale 0 to 100, read-out: Plant response rating, Waterhemp
Procedure, shortened: as §1

[13] = system: winter wheat (Triticum aestivum); assay: Test C preemergence; conditions: Triticum aestivum, pre-emergence, 336 h, scale 0 to 100, read-out: Plant response rating, Wheat
Procedure, shortened: as §1

[14] = system: chickweed (common chickweed, Stellaria media); assay: Test C postemergence; conditions: Stellaria media, post-emergence, Postemergence, scale 0 to 100, read-out: Plant response rating, Chickweed
Procedure, shortened: as §1

[15] = system: galium (catchweed bedstraw, Galium aparine); assay: Test C postemergence; conditions: Galium, post-emergence, 336 h, Postemergence, scale 0 to 100, read-out: Plant response rating, Galium
Procedure, shortened: as §1

kochia (Kochia scoparia) = assay: Test C postemergence; conditions: Bassia scoparia, post-emergence, Postemergence, scale 0 to 100, read-out: Plant response rating, Kochia
Procedure, shortened: as §1

[16] = system: pigweed (Amaranthus retroflexus); assay: Test C postemergence; conditions: Amaranthus retroflexus, post-emergence, 336 h, Postemergence, scale 0 to 100, read-out: Plant response rating, Pigweed
Procedure, shortened: as §1

[17] = system: waterhemp (common waterhemp, Amaranthus rudis); assay: Test C postemergence; conditions: Amaranthus tuberculatus, post-emergence, Postemergence, scale 0 to 100, read-out: Plant response rating, Waterhemp
Procedure, shortened: as §1

wild oat (Avena fatua) = assay: Test C postemergence; conditions: Avena fatua, post-emergence, Postemergence, scale 0 to 100, read-out: Plant response rating, Oat, Wild
Procedure, shortened: as §1

[18] = system: yellow nutsedge (Cyperus esculentus); assay: Test C postemergence; conditions: Cyperus, post-emergence, 336 h, Postemergence, scale 0 to 100, read-out: Plant response rating, Nutsedge, Yellow
Procedure, shortened: as §1

FC(F)c1cccc(Oc2ncc(Cl)cn2)c1Oc1ncc(Cl)cn1 [Compound 46, 2,2′-[[3-(difluoromethyl)-1,2-phenylene]bis(oxy)]bis[5-chloropyrimidine]]
pest or weed control at 31 g/ha ([1]; 31 g ai/ha, preemergence): 25% | pest or weed control at 62 g/ha ([1]; 62 g ai/ha, preemergence): 95% | pest or weed control at 125 g/ha ([1]; 125 g ai/ha, preemergence): 100% | pest or weed control at 16 g/ha ([1]; Preemergence, 16 g ai/ha): 0% | pest or weed control at 31 g/ha ([2]; 31 g ai/ha, preemergence, scale 0 to 100): 70% | pest or weed control at 62 g/ha ([2]; 62 g ai/ha, preemergence, scale 0 to 100): 100% | pest or weed control at 125 g/ha ([2]; 125 g ai/ha, preemergence, scale 0 to 100): 100% | pest or weed control at 16 g/ha ([2]; Preemergence, 16 g ai/ha, scale 0 to 100 (0 no effect, 100 complete control)): 15% | pest or weed control at 31 g/ha ([3]; 31 g ai/ha, preemergence): 70% | pest or weed control at 62 g/ha ([3]; 62 g ai/ha, preemergence): 95% | pest or weed control at 125 g/ha ([3]; 125 g ai/ha, preemergence): 95% | pest or weed control at 16 g/ha ([3]; Preemergence, 16 g ai/ha): 0% | Corn plant response rating (crop injury, 0 = no effect, 100 = complete kill) at 31 g/ha (corn (Zea mays); 31 g ai/ha, preemergence): 25% | Corn plant response rating (crop injury, 0 = no effect, 100 = complete kill) at 62 g/ha (corn (Zea mays); 62 g ai/ha, preemergence): 25% | Corn plant response rating (crop injury, 0 = no effect, 100 = complete kill) at 125 g/ha (corn (Zea mays); 125 g ai/ha, preemergence): 90% | Corn plant response rating (crop injury, 0 = no effect, 100 = complete kill) at 16 g/ha (corn (Zea mays); Preemergence, 16 g ai/ha): 10% | pest or weed control at 31 g/ha ([4]; 31 g ai/ha, preemergence): 100% | pest or weed control at 62 g/ha ([4]; 62 g ai/ha, preemergence): 100% | pest or weed control at 125 g/ha ([4]; 125 g ai/ha, preemergence): 100% | pest or weed control at 16 g/ha ([4]; Preemergence, 16 g ai/ha): 75% | pest or weed control at 31 g/ha ([5]; 31 g ai/ha, preemergence): 40% | pest or weed control at 62 g/ha ([5]; 62 g ai/ha, preemergence): 75% | pest or weed control at 125 g/ha ([5]; 125 g ai/ha, preemergence): 100% | pest or weed control at 16 g/ha ([5]; Preemergence, 16 g ai/ha): 5% | pest or weed control at 31 g/ha ([6]; 31 g ai/ha, preemergence): 100% | pest or weed control at 62 g/ha ([6]; 62 g ai/ha, preemergence): 100% | pest or weed control at 125 g/ha ([6]; 125 g ai/ha, preemergence): 100% | pest or weed control at 16 g/ha ([6]; Preemergence, 16 g ai/ha): 100% | pest or weed control at 31 g/ha ([7]; 31 g ai/ha, preemergence): 90% | pest or weed control at 62 g/ha ([7]; 62 g ai/ha, preemergence): 80% | pest or weed control at 125 g/ha ([7]; 125 g ai/ha, preemergence): 100% | pest or weed control at 16 g/ha ([7]; Preemergence, 16 g ai/ha): 20% | plant injury at 31 g/ha ([8]; 31 g ai/ha, preemergence): 90% | plant injury at 62 g/ha ([8]; 62 g ai/ha, preemergence): 98% | plant injury at 125 g/ha ([8]; 125 g ai/ha, preemergence): 100% | plant injury at 16 g/ha ([8]; Preemergence, 16 g ai/ha): 65% | pest or weed control at 31 g/ha ([9]; 31 g ai/ha, preemergence): 100% | pest or weed control at 62 g/ha ([9]; 62 g ai/ha, preemergence): 100% | pest or weed control at 125 g/ha ([9]; 125 g ai/ha, preemergence): 100% | pest or weed control at 16 g/ha ([9]; Preemergence, 16 g ai/ha): 20% | pest or weed control at 31 g/ha ([10]; 31 g ai/ha, preemergence): 25% | pest or weed control at 62 g/ha ([10]; 62 g ai/ha, preemergence): 35% | pest or weed control at 125 g/ha ([10]; 125 g ai/ha, preemergence): 100% | pest or weed control at 16 g/ha ([10]; Preemergence, 16 g ai/ha): 0% | plant injury at 31 g/ha (soybean (Glycine max); 31 g ai/ha, preemergence): 40% | plant injury at 62 g/ha (soybean (Glycine max); 62 g ai/ha, preemergence): 65% | plant injury at 125 g/ha (soybean (Glycine max); 125 g ai/ha, preemergence): 95% | plant injury at 16 g/ha (soybean (Glycine max); Preemergence, 16 g ai/ha): 10% | pest or weed control at 31 g/ha ([11]; 31 g ai/ha, preemergence): 100% | pest or weed control at 62 g/ha ([11]; 62 g ai/ha, preemergence): 95% | pest or weed control at 125 g/ha ([11]; 125 g ai/ha, preemergence): 100% | pest or weed control at 16 g/ha ([11]; Preemergence, 16 g ai/ha): 25% | pest or weed control at 31 g/ha ([12]; 31 g ai/ha, preemergence): 100% | pest or weed control at 62 g/ha ([12]; 62 g ai/ha, preemergence): 100% | pest or weed control at 125 g/ha ([12]; 125 g ai/ha, preemergence): 100% | pest or weed control at 16 g/ha ([12]; Preemergence, 16 g ai/ha): 75% | plant injury at 31 g/ha ([13]; 31 g ai/ha, preemergence): 5% | plant injury at 62 g/ha ([13]; 62 g ai/ha, preemergence): 5% | plant injury at 125 g/ha ([13]; 125 g ai/ha, preemergence): 50% | plant injury at 16 g/ha ([13]; Preemergence, 16 g ai/ha): 0% | pest or weed control at 16 g/ha ([14]; 16 g ai/ha): 35% | pest or weed control at 31 g/ha ([14]; 31 g ai/ha): 40% | pest or weed control at 62 g/ha ([14]; 62 g ai/ha): 60% | pest or weed control at 125 g/ha ([14]; 125 g ai/ha): 75% | pest or weed control at 16 g/ha ([15]; 16 g ai/ha): 60% | pest or weed control at 31 g/ha ([15]; 31 g ai/ha): 60% | pest or weed control at 62 g/ha ([15]; 62 g ai/ha): 60% | pest or weed control at 125 g/ha ([15]; 125 g ai/ha): 65% | pest or weed control at 16 g/ha (kochia (Kochia scoparia); 16 g ai/ha): 70% | pest or weed control at 31 g/ha (kochia (Kochia scoparia); 31 g ai/ha): 80% | pest or weed control at 62 g/ha (kochia (Kochia scoparia); 62 g ai/ha): 95% | pest or weed control at 125 g/ha (kochia (Kochia scoparia); 125 g ai/ha): 100% | pest or weed control at 31 g/ha ([16]; 31 g ai/ha): 70% | pest or weed control at 62 g/ha ([16]; 62 g ai/ha): 70% | pest or weed control at 125 g/ha ([16]; 125 g ai/ha): 85% | pest or weed control at 31 g/ha ([17]; 31 g ai/ha): 50% | pest or weed control at 62 g/ha ([17]; 62 g ai/ha): 70% | pest or weed control at 125 g/ha ([17]; 125 g ai/ha): 5% | pest or weed control at 31 g/ha (wild oat (Avena fatua); 31 g ai/ha): 5% | pest or weed control at 62 g/ha (wild oat (Avena fatua); 62 g ai/ha): 5% | pest or weed control at 125 g/ha (wild oat (Avena fatua); 125 g ai/ha): 10% | pest or weed control at 31 g/ha ([18]; 31 g ai/ha): 0% | pest or weed control at 62 g/ha ([18]; 62 g ai/ha): 5% | pest or weed control at 125 g/ha ([18]; 125 g ai/ha): 5%

From US20170190671A1, “BIS(ARYL)CATECHOL DERIVATIVES AS HERBICIDES” (E I DU PONT DE NEMOURS AND COMPANY, priority 2014, published 2017)
